Measurements: patent US5945415A, “(R)-5-bromo-N-(1-ethyl-4-methylhexahydr o-1H-1,4-diazepin-6-yl)-2-methoxy-6-methylamino-3-pyridinecarboxamide, process for producing the same and medicinal composition containing the same” (priority 1995, dated 1999)
Structures can show the parent of a compound that is named as a salt. Where two headings read alike, the source gives them in different places.

Assays:
[1] = tested on: apomorphine-induced emesis; test: Inhibitory effect on apomorphine-induced emesis in dog; assay type: in vivo, Beagle dogs; details: Canis lupus familiaris, read-out: ED50 apomorphine-induced emesis, dog
Procedure: Inhibitory Effect on Apomorphine-induced Emesis
Three to four Beagle dogs (body weight: 8-15 kg) per group were used to examine the inhibitory effect of the test compounds on apomorphine-inducedemesis. This test has been commonly conducted as a method for detecting dopamine blocker. Each of the test animals was orally administered with a prescribed dose of a test compound as dissolved or suspended in 0.5% tragacanth solution, and two hours thereafter, was administered with apomorphine hydrochloride (0.3 mg/kg) by subcutaneous injection at the back.

cisplatin-induced emesis [2] = test: Effect on cisplatin-induced emesis in ferrets; assay type: in vivo, Male ferrets; details: Mustela putorius, 0.5 h, read-out: ED50 cisplatin-induced emesis, ferret
Procedure: Effect on Cisplatin-induced Emesis in Ferrets
Male ferrets (Marshall Lab., U.S.A.) weighing approximately 1 kg were used. For intravenous injection, a cannule was implanted in the cervical vein under pentobarbital anethesia, 3-4 days in advance of the experiment. To each test group each a prescribed dose of a test compound as dissolved or suspended in 0.5% tragacanth solution was orally administered, and 30 minutes thereafter, cisplatin (Sigma) 10 mg/kg (physiological salt solution, 3 ml/kg) was administered intravenously through the cannule.

cisplatin-induced emesis [3] = test: Effect on cisplatin-induced emesis in dog; assay type: in vivo, Beagle dogs; details: Canis lupus familiaris, 0.5 h, read-out: ED50 cisplatin-induced emesis, dog
Procedure: Effect on Cisplatin-induced Emesis in Dog
Four to five Beagle dogs (body weight: 10-12 kg) per group were used to examine the inhibitory effect of the test compounds on cisplatin-induced emesis. To each test group each a prescribed dose of a test compound as dissolved or suspended in 0.5% tragacanth solution was orally administered, and 30 minutes thereafter, cisplatin (Sigma) 3 mg/kg (physiological salt solution, 3 ml/kg) was intravenously administered.

Dopamine D2 receptor = Dopamine D2 receptor (Rattus norvegicus, UniProt P61169); test: biochemical
Procedure: (§1) Dopamine D2 receptor-binding and serotonin S3 receptor-binding activities (in vitro receptor binding assay)
(§2) Crude synaptosome fractions prepared from rat brain were used as receptor samples, and [^3 H] spiperone (D2) and [^3 H] quipazine (S3), as labelled ligands. A buffer solution containing each of the receptor sample and labelled ligand (final volume: 1 ml) was incubated for a prescribed period in the presence of one of the test compounds at various concentration levels, and thereafter the radioactive ligand bound to the receptor was isolated onto a filter using a cell-harvester (Brandel Co.) and radioactivity on each filter was measured with a liquid scintillation counter to determine the total amount bound to the receptor. Specifically bound amount was calculated by subtracting non-specifically bound amount from the total amount bound, said non-specifically bound amount being that bound under the presence of an excessive amount of non-labelled ligand [spiperone (D2) and [^3 H] quipazine (S3)] which was concurrently measured. The concentration level of the test compound at which specific binding of labelled ligand was inhibited by 50% (IC50 value) was calculated by probit analysis.

[4] = target: T1, serotonin S3 (5-HT3) receptor (Rattus norvegicus, UniProt P35563); test: Inhibitory effect on von Bezold-Jarisch reflex (anti-serotonin S3 activity); assay type: in vivo, Male Wister rats; parameters: Male Wister rats weighing 250-350 g were anesthetized with urethane; from tissue; host or cells: whole animal in vivo (male Wistar rats); details: 0.05 h, test compound intravenous 3 minutes before 2-methylserotonin 10-30 μg/kg i.v., read-out: ED50 von Bezold-Jarisch Reflex Inhibition
T1 sequence (P35563 24-483): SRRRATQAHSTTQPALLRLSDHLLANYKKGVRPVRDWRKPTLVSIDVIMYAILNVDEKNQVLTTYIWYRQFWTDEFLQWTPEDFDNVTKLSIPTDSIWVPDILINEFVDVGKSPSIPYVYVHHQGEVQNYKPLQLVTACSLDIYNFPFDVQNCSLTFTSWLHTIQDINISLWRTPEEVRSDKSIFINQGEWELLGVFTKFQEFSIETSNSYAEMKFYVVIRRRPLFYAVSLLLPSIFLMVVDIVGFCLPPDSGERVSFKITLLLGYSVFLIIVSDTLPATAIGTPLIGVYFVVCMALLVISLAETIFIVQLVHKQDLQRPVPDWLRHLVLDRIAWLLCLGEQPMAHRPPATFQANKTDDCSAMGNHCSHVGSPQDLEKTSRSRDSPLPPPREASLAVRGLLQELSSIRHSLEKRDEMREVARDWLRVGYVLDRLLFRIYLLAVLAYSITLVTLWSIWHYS
Procedure: Inhibitory Effect on von Bezold-Jarisch Reflex (Anti-serotonin S3 Activity)
This test was carried out following the method of Fozard, et al. [cf. Arch. […] Male Wister rats weighing 250-350 g were anesthetized with urethane (1.5 g/kg, intraperitoneal) and set on their backs. Electrocardiogram (lead II) and a heart rate on the animals were recorded on inkwriting oscillograph via a biophysical amplifier and pulse rate tachometer, respectively. […] A fixed amount of 2-methylserotonin was repeatedly administered at 15-minute intervals until stable responses were obtained, and then a test compound was administered intravenously, 3 minutes before administration of 2-methylserotonin.

[5] = Inhibitory effect on exploratory activity; parameters: species or system Male mice (Std-ddy strain); details: mouse, in vivo; mice, oral, 2 hours after administration, counts for 3 minutes; read-out: ED50 inhibition of exploratory activity
Procedure: Inhibitory Effect on Exploratory Activity
Male mice (5 per group, Std-ddy strain, weighing 20-25 g) were used as the test animals, each of which was orally administered with a test compound which was dissolved or suspended in 0.5% tragacanth solution and after 2 hours from the administration put in a test cage (23×35×30 cm) on Animex activity meter (Farad Co.). Exploratory activity of each mouse was counted for the following 3 minutes. The mean counts of exploratory activities (count/3 min.) per group of the tested mice was compared with that of the control group to calculate the inhibition rate, and the effective dose (ED50 value) of each test compound for 50% inhibition was determined by probit analysis.

[6] = target: T1, serotonin S3 (5-HT3) receptor; test: Serotonin S3 receptor-binding (in vitro receptor binding assay, [3H] quipazine); parameters: Crude synaptosome fractions prepared from rat brain were used as receptor samples; from tissue; host or cells: rat brain, crude synaptosome fraction
Procedure: as §1, §2

[7] = dog, oral, 2 hours before apomorphine hydrochloride 0.3 mg/kg s.c., emetic episodes within 1 hour
[8] = ferret, oral, 30 minutes before cisplatin 10 mg/kg i.v., emetic episodes within 3 hours
[9] = dog, oral, 30 minutes before cisplatin 3 mg/kg i.v., emetic episodes within 5 hours

Dopamine D2 receptor, sequence (P61169 whole entry): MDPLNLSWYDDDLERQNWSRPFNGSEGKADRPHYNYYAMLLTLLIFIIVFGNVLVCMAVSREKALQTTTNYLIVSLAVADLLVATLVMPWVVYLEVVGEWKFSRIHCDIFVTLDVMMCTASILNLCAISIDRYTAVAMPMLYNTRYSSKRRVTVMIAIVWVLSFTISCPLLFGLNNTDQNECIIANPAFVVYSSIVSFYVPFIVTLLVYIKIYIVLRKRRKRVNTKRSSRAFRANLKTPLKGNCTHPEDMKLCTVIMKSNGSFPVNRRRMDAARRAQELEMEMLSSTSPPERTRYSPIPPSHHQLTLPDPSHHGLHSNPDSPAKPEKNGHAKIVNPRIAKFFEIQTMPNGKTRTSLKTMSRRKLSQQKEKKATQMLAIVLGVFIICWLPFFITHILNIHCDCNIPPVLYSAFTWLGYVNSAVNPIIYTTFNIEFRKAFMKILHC

| IC50 ([6]; crude synaptosome fractions from rat brain, [3H] quipazine (S3), read-out: IC50 S3) [µM] | SMILES | ED50 ([1]; po, 2 h) [mg/kg] | ED50 (cisplatin-induced emesis [2]; po) [mg/kg] | ED50 (cisplatin-induced emesis [3]; po) [mg/kg] | ED50 [1, 7] [mg/kg] | ED50 (cisplatin-induced emesis [2]; [8]) [mg/kg] | ED50 (cisplatin-induced emesis [3]; [9]) [mg/kg] | IC50 (Dopamine D2 receptor) [µM] | ED50 [4] [mg/kg] | ED50 at 2 h [5] [mg/kg] | IC50 [6] [µM] |
| --- | --- | --- | --- | --- | --- | --- | --- | --- | --- | --- | --- |
| – | O=c1[nH]c2ccccc2n1CCCN1CCC(n2c(=O)[nH]c3cc(Cl)ccc32)CC1 [domperidone, 5-chloro-1-[1-[3-(2,3-dihydro-2-oxo-1H-benzimidazol-1-yl)propyl]-4-piperidinyl]-1,3-dihydro-2H-benzimidazol-2-one] | 0.02 | > 10 | > 3 | – | – | – | – | – | – | – |
| – | Cc1nccn1CC1CCc2c(c3ccccc3n2C)C1=O.Cl (centres unmarked) [ondansetron hydrochloride, 1,2,3,9-tetrahydro-9-methyl-3-[(2-methyl-1H-imidazol-1-yl)methyl]-4H-carbazol-4-one hydrochloride] | – | – | – | > 10 | 0.1 | 0.16 | > 100 | 0.0011 | – | – |
| – | CN1C2CCCC1CC(NC(=O)c1nn(C)c3ccccc13)C2 (stereo not drawn) [granisetron hydrochloride, endo-1-methyl-N-(9-methyl-9-azobicyclo-[3.3.1]non-3-yl)-1H-indazole-3-carboxamide hydrochloride] | – | – | – | – | – | – | > 100 | 0.00026 | – | – |
| 0.001 | CCN1CCN(C)C[C@@H](NC(=O)c2cc(Br)c(NC)nc2OC)C1.O=C(O)/C=C/C(=O)O.O=C(O)/C=C/C(=O)O [Example 1, (R)-5-bromo-N-(1-ethyl-4-methylhexahydro-1H-1,4-diazepin-6-yl)-2-methoxy-6-methylamino-3-pyridinecarboxamide Difumarate] | – | – | – | 0.19 | 0.03 | 0.29 | 0.0117 | 0.0019 | 48.5 | – |
| – | CCN(CC)CCNC(=O)c1cc(Cl)c(N)cc1OC.Cl.Cl.O [metoclopramide hydrochloride, 4-amino-5-chloro-N-[2-(diethylamino)ethyl]-2-methoxybenzamide dihydrochloride monohydrate] | – | – | – | 0.45 | 0.98 | 3.96 | – | 0.181 | 22.4 | 0.88 |
